Data reported in ChEMBL document CHEMBL3352746, “Synthesis and anticancer activity of quinopimaric and maleopimaric acids’ derivatives” (Bioorg Med Chem, 2014).

Legend:
[1] = Growth inhibition of human SF539 cells; format: functional
[2] = Growth inhibition of human COLO205 cells; format: functional
Mus musculus [3] = experiment: Toxicity in mouse CA-755 cells implanted mouse assessed as mouse mortality at 40 mg/kg, ip dosed daily for 5 days; format: organism-based; design: dose 40 mg/kg, route intraperitoneal; settings: in vivo, 120 h
[4] = Antitumor activity against mouse CA-755 cells implanted in mouse assessed as tumor growth inhibition at 40 mg/kg, ip dosed daily for 5 days measured 8 to 9 days after treatment termination; format: functional; settings: CA-755, ip, route intraperitoneal, read-out: TGI
NCI-H226 = experiment: Growth inhibition of human NCI-H226 cells; format: functional
Mus musculus [5] = experiment: Toxicity in mouse P388 cells implanted mouse assessed as mouse mortality at 10 mg/kg, ip dosed daily for 5 days administered 24 hrs after tumor implantation; format: organism-based; design: dose 10 mg/kg, route intraperitoneal; settings: in vivo
IGROV-1 = experiment: Growth inhibition of human IGROV1 cells; format: functional
[6] = Growth inhibition of human MOLT4 cells; format: functional
[7] = Antitumor activity against mouse CA-755 cells implanted in mouse assessed as increase in life span at 40 mg/kg, ip dosed daily for 5 days; format: functional; settings: CA-755, ip, 120 h, route intraperitoneal
[8] = Growth inhibition of human PC3 cells; format: functional
[9] = Growth inhibition of human HCC2998 cells; format: functional
NCI-H322M = experiment: Growth inhibition of human NCI-H322M cells; format: functional
Mus musculus [10] = experiment: Toxicity in mouse P388 cells implanted mouse assessed as mean spleen weight at 40 mg/kg, ip dosed daily for 5 days administered 24 hrs after tumor implantation; format: organism-based; design: dose 40 mg/kg, route intraperitoneal; settings: in vivo
MCF7 = experiment: Growth inhibition of human MCF7 cells; format: functional
[11] = Growth inhibition of human SF295 cells; format: functional
[12] = Growth inhibition of human RPMI8226 cells; format: functional, RPMI-8226
SR = experiment: Growth inhibition of human SR cells; format: functional
[13] = read-out: pLC50 (the source's name) (converted)

`COC(=O)[C@]1(C)CCC[C@]2(C)[C@H]3C[C@H]4C(C(C)C)=C[C@]3(CC[C@H]21)[C@@H]1/C(=N/O)CC/C(=N\O)[C@@H]14` gave a GI50 ([1]; SF-539) of 9.12 µM, a CC50 ([1]; SF-539, read-out: pLC50 (the source's name) (converted)) of 46.8 µM and a TGI ([1]; SF-539, read-out: pTGI (converted)) of 21.4 µM. For the same compound, the GI50 ([2]; COLO 205) was 2.19 µM, the CC50 ([2]; COLO 205, read-out: pLC50 (the source's name) (converted)) was 8.51 µM and the TGI ([2]; COLO 205, read-out: pTGI (converted)) was 4.37 µM. The Activity (Mus musculus [3]) was “Non-toxic”, the inhibition in vivo at 40 mg/kg [4] was 52% and the GI50 (NCI-H226) was 7.94 µM. The CC50 (NCI-H226; [13]) was 85.1 µM, the TGI (NCI-H226; read-out: pTGI (converted)) was 28.2 µM and the Activity (Mus musculus [5]) was “Non-toxic”. It also gave a GI50 (IGROV-1; IGROV-1) of 4.57 µM, a CC50 (IGROV-1; IGROV-1, read-out: pLC50 (converted)) greater than 100 µM and a TGI (IGROV-1; IGROV-1, read-out: pTGI (converted)) of 21.9 µM. The GI50 ([6]; MOLT-4) was 1.86 µM, the CC50 ([6]; MOLT-4, read-out: pLC50 (the source's name) (converted)) was 33.9 µM and the TGI ([6]; MOLT-4, read-out: pTGI (converted)) was 6.31 µM. The ILS at 40 mg/kg [7] was 11%, the GI50 ([8]; PC-3) was 4.37 µM and the CC50 ([8]; PC-3, read-out: pLC50 (the source's name) (converted)) was 45.7 µM. For the same compound, the TGI ([8]; PC-3, read-out: pTGI (converted)) was 15.1 µM, the GI50 ([9]; HCC 2998) was 2.75 µM and the CC50 ([9]; HCC 2998, read-out: pLC50 (the source's name) (converted)) was 33.1 µM. The TGI ([9]; HCC 2998, read-out: pTGI (converted)) was 6.46 µM, the GI50 (NCI-H322M) was 2.69 µM and the CC50 (NCI-H322M; [13]) was 20.9 µM. It also gave a TGI (NCI-H322M; read-out: pTGI (converted)) of 6.17 µM, an Activity (Mus musculus [10]) of 212 mg and a GI50 (MCF7) of 1.78 µM. For the same compound, the CC50 (MCF7; [13]) was 9.55 µM, the TGI (MCF7; read-out: pTGI (converted)) was 4.07 µM and the GI50 ([11]; SF-295) was 5.89 µM. The CC50 ([11]; SF-295, read-out: pLC50 (the source's name) (converted)) was 64.6 µM, the TGI ([11]; SF-295, read-out: pTGI (converted)) was 21.4 µM and the GI50 ([12]; RPMI-8226) was 2.09 µM. The CC50 ([12]; RPMI-8226, read-out: pLC50 (converted)) was greater than 100 µM, the TGI ([12]; RPMI-8226, read-out: pTGI (converted)) was 4.79 µM and the GI50 (SR) was 2 µM. The CC50 (SR; [13]) was 25.1 µM and the TGI (SR; read-out: pTGI (converted)) was 4.79 µM.
